In US6642241B1, “Alkylamino-substituted bicyclic nitrogen heterocycles” (Syntex (U.S.A.) LLC, priority 1999, dated 2003) one finds melting point data, which are given here for three compounds.

SMILES strings stand for the structures. Counter-ions that a name gives are not always drawn.

For `COCCN1C(=O)N(c2ccccc2Cl)Cc2cnc(NC(C)C)nc21` (as salt: hydrochloride) [Example 2b, 3-(2-chloro-phenyl)-1-(2-methoxy-ethyl)-7-isopropylamino-3,4-dihydropyrimido[4,5-d]pyrimidin-2(1H)-one], the melting point was in the range of 126 to 131.6 °C.
Take `CC(C)Nc1ncc2c(n1)N(CC(=O)O)C(=O)N(c1ccccc1Cl)C2` [Example 1e, 3-(2-chloro-phenyl)-1-carboxymethyl-7-isopropylamino-3,4-dihydropyrimido[4,5-d]pyrimidin-2(1H)-one]: the melting point fell in the range of 172 to 188 °C.
For `CCOC(=O)CN1C(=O)N(c2ccccc2Cl)Cc2cnc(NC(C)C)nc21` [Example 1d, 3-(2-chloro-phenyl)-1-ethoxycarbonylmethyl-7-isopropylamino-3,4-dihydropyrimido[4,5-d]pyrimidin-2(1H)-one], the melting point was 188.8 to 191.4 °C.
